# In patent publication US20240400508A1, “ALKYL-SUBSTITUTED DERIVATIVES OF […] ME[…] […] USES THEREOF” (Sensorium Therapeutics, Inc., priority 2022, published 2024):
# Key:
# [1] = target: T1, SERT (Homo sapiens, UniProt P31645); experiment: SERT inhibition assay (Neurotransmitter Transportation Fluorescence assay); type: cell-based; details: stable 5HTT cells, assay of Example B1
# T1 construct: expressed in transfected cells
# Description: SERT inhibition was measured using a Neruotransmitter Transportation Fluorescence assay. Briefly, stable SHTT cells were prepared in a 384 microwell plate. Compounds were prepared in assay buffer (20 mM HEPES in HBSS, 0.1% BSA). The compounds were added to the plated cells and incubated for 30 minutes at 37° C. 25 μL of dye solution (Molecular Devices Neurotransmitter Transporter Uptake Assay Kit) was added per well and incubated for 30 minutes at 37° C. The plates were then read on a plate reader.
# [2] = target: T2, PDE4A1A (Homo sapiens, UniProt P27815); experiment: Recombinant PDE4 isoform inhibition assay (BPS Bioscience kit, fluorescence polarization); type: biochemical
# T2 construct: purchased BPS Bioscience
# T2 sequence (P27815 1-647 isoform P27815-4): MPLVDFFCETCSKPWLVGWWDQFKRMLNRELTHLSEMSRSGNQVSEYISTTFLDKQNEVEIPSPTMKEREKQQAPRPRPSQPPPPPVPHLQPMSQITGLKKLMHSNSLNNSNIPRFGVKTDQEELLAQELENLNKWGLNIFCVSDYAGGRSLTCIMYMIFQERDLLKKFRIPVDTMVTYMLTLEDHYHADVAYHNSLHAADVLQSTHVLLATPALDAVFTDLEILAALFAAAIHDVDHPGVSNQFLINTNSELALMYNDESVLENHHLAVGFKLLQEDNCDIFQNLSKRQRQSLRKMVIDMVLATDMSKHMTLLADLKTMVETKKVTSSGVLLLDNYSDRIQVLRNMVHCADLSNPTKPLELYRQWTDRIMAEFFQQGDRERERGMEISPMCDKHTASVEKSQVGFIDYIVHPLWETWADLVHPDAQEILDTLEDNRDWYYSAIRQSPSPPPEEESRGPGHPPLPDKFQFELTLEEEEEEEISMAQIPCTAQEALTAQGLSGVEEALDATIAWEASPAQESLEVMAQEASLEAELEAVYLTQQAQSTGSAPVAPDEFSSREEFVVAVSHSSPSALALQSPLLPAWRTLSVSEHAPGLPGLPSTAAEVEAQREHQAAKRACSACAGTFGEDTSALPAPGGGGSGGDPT
# Description: (§1) Recombinant PDE assay inhibition can be measured according to the BPS Bioscience PDE4 assay kit, as described below.
# (§2) • 1) Dilute 20 μM FAM-Cyclic-3′, 5′-AMP stock 100-fold with PDE buffer to make a 200 nM
# (§3) • 2) Add 25 μl of FAM-Cyclic-3′,5′-AMP (200 nM) to each well designated “Positive Control”, “Test Inhibitor”, and “Substrate Control”. • 3) Add 20 μl of PDE assay buffer to each well designated “Substrate Control” and 45 μl of PDE assay buffer to each well designated “Blank”. • 4) Add 5 μl of inhibitor solution to each well designated “Test Inhibitor”. For the wells labeled “Positive Control”, “Substrate Control” and “Blank”, add 5 μl of the same solution without inhibitor (inhibitor buffer). • 5) Thaw PDE on ice. Upon first thaw, briefly spin tube containing enzyme to recover the full contents of the tube. • 6) Dilute PDE4 in PDE buffer to 7.5 pg/μl (0.15 ng/reaction)*. Initiate reaction by adding 20 μl of PDE4 (7.5 pg/μl) to the wells designated “Positive Control” and “Test Inhibitor.” • 7) Incubate at room temperature for 1 hour.
# (§4) • 1) Mix binding agent thoroughly and dilute binding agent 1:100 with binding agent diluent. • 2) Add 100 μl diluted binding agent to each microwell. Incubate at room temperature for 1 hour with slow shaking. • 3) Read the fluorescent polarization of the sample in a microtiter-plate reader equipped for the measurement of fluorescence polarization, capable of excitation at wavelengths ranging from 485±5 nm and detection of emitted light ranging from 528±10 nm. Blank value is subtracted from all other values.
# [3] = target: T3, PDE4D2 (Homo sapiens, UniProt Q08499); experiment: as above; type: biochemical
# T3 construct: purchased BPS Bioscience
# T3 sequence (Q08499 303-809 limits assumed): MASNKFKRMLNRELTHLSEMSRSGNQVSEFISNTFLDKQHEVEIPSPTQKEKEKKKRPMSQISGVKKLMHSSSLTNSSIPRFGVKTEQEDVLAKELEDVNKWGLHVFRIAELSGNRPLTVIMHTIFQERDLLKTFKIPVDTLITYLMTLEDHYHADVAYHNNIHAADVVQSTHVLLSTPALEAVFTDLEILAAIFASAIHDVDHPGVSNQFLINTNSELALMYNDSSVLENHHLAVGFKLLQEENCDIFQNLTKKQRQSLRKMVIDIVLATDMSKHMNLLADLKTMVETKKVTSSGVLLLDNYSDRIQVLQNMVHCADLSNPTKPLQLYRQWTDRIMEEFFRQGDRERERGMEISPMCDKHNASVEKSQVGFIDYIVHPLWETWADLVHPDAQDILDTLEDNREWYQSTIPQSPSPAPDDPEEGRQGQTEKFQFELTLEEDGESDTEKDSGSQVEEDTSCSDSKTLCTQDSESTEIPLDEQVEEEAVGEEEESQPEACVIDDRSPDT
# Description: as §1, §2, §3, §4
# [4] = target: T4, PDE4C1 (Homo sapiens, UniProt Q08493); experiment: as above; type: biochemical
# T4 construct: purchased BPS Bioscience
# T4 sequence (Q08493 whole entry): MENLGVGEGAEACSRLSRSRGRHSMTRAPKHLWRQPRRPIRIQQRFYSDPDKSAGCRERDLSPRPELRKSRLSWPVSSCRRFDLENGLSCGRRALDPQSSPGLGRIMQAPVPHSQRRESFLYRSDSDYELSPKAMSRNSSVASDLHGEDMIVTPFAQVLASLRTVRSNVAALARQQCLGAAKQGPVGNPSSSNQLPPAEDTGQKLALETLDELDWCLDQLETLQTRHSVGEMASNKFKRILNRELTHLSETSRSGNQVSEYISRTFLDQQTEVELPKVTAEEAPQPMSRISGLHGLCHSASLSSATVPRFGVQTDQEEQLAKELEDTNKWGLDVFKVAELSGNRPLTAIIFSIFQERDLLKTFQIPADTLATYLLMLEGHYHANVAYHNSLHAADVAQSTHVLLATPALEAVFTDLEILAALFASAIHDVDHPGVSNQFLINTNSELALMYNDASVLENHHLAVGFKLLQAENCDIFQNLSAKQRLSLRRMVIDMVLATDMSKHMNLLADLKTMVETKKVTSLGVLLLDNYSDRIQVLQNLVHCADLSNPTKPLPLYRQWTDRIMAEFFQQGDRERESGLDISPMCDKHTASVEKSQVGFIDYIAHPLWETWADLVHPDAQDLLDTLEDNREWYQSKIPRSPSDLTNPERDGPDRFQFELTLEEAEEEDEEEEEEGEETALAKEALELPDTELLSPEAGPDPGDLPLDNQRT
# Description: as §1, §2, §3, §4
# [5] = target: T5, PDE4B2 (Homo sapiens, UniProt Q07343); experiment: as above; type: biochemical
# T5 construct: purchased BPS Bioscience
# T5 sequence (Q07343 1-564 isoform Q07343-2): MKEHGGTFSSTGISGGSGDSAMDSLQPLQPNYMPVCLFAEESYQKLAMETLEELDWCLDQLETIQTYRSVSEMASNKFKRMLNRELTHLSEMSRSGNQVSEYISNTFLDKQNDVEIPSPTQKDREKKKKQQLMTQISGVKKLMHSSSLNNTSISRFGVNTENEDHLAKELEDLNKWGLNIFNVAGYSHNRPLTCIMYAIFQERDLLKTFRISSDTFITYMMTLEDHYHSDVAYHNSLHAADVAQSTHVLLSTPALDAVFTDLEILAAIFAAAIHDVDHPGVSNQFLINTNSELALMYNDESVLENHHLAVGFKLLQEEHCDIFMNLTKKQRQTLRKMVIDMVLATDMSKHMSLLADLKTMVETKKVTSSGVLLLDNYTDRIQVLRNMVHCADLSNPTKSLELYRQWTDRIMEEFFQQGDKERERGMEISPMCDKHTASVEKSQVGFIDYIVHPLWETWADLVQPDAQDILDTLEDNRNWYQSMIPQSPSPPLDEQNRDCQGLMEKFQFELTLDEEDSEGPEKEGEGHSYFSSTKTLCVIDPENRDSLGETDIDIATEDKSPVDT
# Description: as §1, §2, §3, §4
# [6] = cited from earlier work
# T1 sequence (P31645 whole entry, species assumed): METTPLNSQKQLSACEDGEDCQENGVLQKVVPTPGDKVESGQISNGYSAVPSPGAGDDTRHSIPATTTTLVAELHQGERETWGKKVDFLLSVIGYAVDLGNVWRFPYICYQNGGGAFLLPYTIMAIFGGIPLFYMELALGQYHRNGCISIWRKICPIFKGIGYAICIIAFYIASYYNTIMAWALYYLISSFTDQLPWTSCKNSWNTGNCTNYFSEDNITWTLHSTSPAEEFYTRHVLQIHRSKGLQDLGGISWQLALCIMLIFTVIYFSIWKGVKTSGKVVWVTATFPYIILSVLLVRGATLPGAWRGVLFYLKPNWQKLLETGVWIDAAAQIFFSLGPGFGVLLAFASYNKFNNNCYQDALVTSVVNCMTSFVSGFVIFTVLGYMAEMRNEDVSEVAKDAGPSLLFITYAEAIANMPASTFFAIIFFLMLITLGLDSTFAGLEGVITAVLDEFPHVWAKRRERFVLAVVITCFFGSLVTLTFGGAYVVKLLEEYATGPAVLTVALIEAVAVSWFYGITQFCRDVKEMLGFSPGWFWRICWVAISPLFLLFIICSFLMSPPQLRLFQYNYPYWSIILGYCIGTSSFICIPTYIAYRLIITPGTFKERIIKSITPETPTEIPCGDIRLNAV
Structure (SMILES),IC50 [1],inhibition at 10 µM [2],inhibition at 10 µM [3],inhibition at 10 µM [4],inhibition at 10 µM [5],half-life in plasma [6]
"COc1ccc([C@@]23CCN(C)[C@@H]2CC(=O)C[C@@H]3C)cc1OC (single isomer, unassigned) [Compound 103]",< 0.25 µM,< 20%,< 20%,< 20%,< 20%,–
"COc1ccc([C@]23CCN(C)[C@H]2CC(=O)C[C@H]3C)cc1OC (single isomer, unassigned) [Compound 102]",< 0.25 µM,< 20%,< 20%,< 20%,< 20%,–
COc1ccc([C@@]23CCC(=O)C[C@@H]2N(C)CC3)cc1OC [(−) mesembrine],–,–,–,–,–,less than 2 hours
